Data published in the supplement of paper PMC10307832.

Assays:
Assay in all cases: relative viability (nuclei count vs DMSO), 5 days (fraction); higher = more cells survive
[1] = compound: CC1=C(C(=NN1)C)CC2=C(C3=C(S2)N(C(=O)N(C3=O)C)CC(C)C)C(=O)N4C[C@@H](CO4)O + NC(=O)Nc1cc(-c2cccc(F)c2)sc1C(=O)N[C@H]1CCCNC1 [AZD7762] (partner 0.2 µM)
Outline: (§1)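 Relative viability was taken as the ratio of nuclei in treated wells to nuclei in vehicle wells. Lung cancer cell lines in 1536-well plates received compounds by pin tool one day after seeding, either one drug alone or a fixed anchor-drug dose plus five library-drug doses (not always all listed) in √10 steps. Nuclei were counted on 4× images after 5 days of treatment, and values are medians of duplicate plates.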

[2] = compound: CC1=C(C(=NN1)C)CC2=C(C3=C(S2)N(C(=O)N(C3=O)C)CC(C)C)C(=O)N4C[C@@H](CO4)O + CC(=O)c1c(C)c2cnc(Nc3ccc(N4CCNCC4)cn3)nc2n(C2CCCC2)c1=O [Palbociclib] (partner 0.5 µM)
Outline: as §1

[3] = compound: Cc1ccccc1C(C(=O)NC1CCCCC1)N(C(=O)Cn1ccnc1C)c1cccc(F)c1 [IDH-C35] + Nc1ncn([C@H]2C[C@H](O)[C@@H](CO)O2)c(=O)n1 [Decitabine] (partner 2 µM)
Outline: as §1

[4] = compound: Cc1ccccc1C(C(=O)NC1CCCCC1)N(C(=O)Cn1ccnc1C)c1cccc(F)c1 [IDH-C35] + C[C@@H](Oc1cc(-c2cnn(C3CCNCC3)c2)cnc1N)c1c(Cl)ccc(F)c1Cl [Crizotinib] (partner 1 µM)
Outline: as §1

Cell Line	relative viability ([1]; first compound 0.0025 µM)	relative viability ([1]; first compound 0.007906 µM)	relative viability ([1]; first compound 0.025 µM)	relative viability ([1]; first compound 0.07906 µM)	relative viability ([1]; first compound 0.25 µM)	relative viability ([2]; first compound 0.0025 µM)	relative viability ([2]; first compound 0.007906 µM)	relative viability ([2]; first compound 0.025 µM)	relative viability ([2]; first compound 0.07906 µM)	relative viability ([2]; first compound 0.25 µM)	relative viability ([3]; first compound 0.08 µM)	relative viability ([3]; first compound 0.253 µM)	relative viability ([3]; first compound 0.8 µM)	relative viability ([3]; first compound 2.53 µM)	relative viability ([3]; first compound 8 µM)	relative viability ([4]; first compound 0.08 µM)	relative viability ([4]; first compound 0.253 µM)	relative viability ([4]; first compound 0.8 µM)	relative viability ([4]; first compound 2.53 µM)	relative viability ([4]; first compound 8 µM)
NCI-H522	0.836	1.05	0.546	0.565	0.624	1.08	1.02	0.852	0.521	0.618	0.604	0.795	0.72	0.652	0.716	–	–	–	–	–
HCC-15	1.34	1.37	1.13	1.17	1.29	0.788	0.77	0.726	0.727	0.788	0.61	0.546	0.689	0.579	0.635	0.854	0.804	0.802	0.814	0.731
A-427	0.73	0.691	0.752	0.847	0.677	0.524	0.514	0.515	0.548	0.578	0.622	0.57	0.598	0.526	0.58	0.907	0.983	0.849	0.891	0.791
NCI-H2228	–	–	–	–	–	0.794	0.768	0.779	0.793	0.933	–	–	–	–	–	0.418	0.457	0.51	0.496	0.506
NCI-H1734	0.53	0.581	0.342	0.402	0.381	0.328	0.396	0.349	0.307	0.322	0.537	0.524	0.528	0.483	0.499	0.69	0.729	0.623	0.638	0.729
PC-14	0.33	0.371	0.332	0.374	0.306	0.453	0.45	0.493	0.468	0.646	0.211	0.206	0.239	0.226	0.214	0.886	0.845	0.837	0.88	0.835
NCI-H1915	0.742	0.727	0.658	0.641	0.762	0.563	0.574	0.522	0.532	0.539	0.278	0.248	0.293	0.281	0.277	0.855	0.865	0.805	0.904	0.917
NCI-H1666	0.741	0.859	0.812	0.787	1.01	0.702	0.641	0.734	0.591	0.636	0.676	0.801	0.747	0.606	0.655	0.995	0.942	0.968	1	0.967
HCC-366	0.271	0.361	0.297	0.277	0.378	0.377	0.406	0.387	0.372	0.523	0.359	0.344	0.403	0.288	0.324	0.546	0.51	0.564	0.546	0.42
SK-MES-1	–	–	–	–	–	0.358	0.336	0.319	0.329	0.333	0.294	0.39	0.379	0.362	0.377	1.05	0.953	0.912	0.937	0.986
SW 1573	–	–	–	–	–	0.469	0.439	0.42	0.407	0.47	0.491	0.628	0.564	0.544	0.465	0.759	0.889	0.798	1.01	0.713
NCI-H661	–	–	–	–	–	0.395	0.426	0.455	0.396	0.426	0.566	0.541	0.546	0.535	0.602	0.969	0.973	–	0.975	0.971
PC-3 [JPC-3]	0.872	0.76	0.69	0.976	0.806	0.528	0.502	0.539	0.533	0.524	0.843	0.795	0.864	0.806	0.807	1.01	0.919	0.929	1.03	0.965
Calu-6	–	–	–	–	–	–	–	–	–	–	–	–	–	–	–	0.765	0.745	0.804	0.833	0.742
LC-2-ad	0.892	0.83	0.84	0.856	0.851	0.46	0.518	0.456	0.467	0.55	0.73	0.839	0.847	0.764	0.782	0.463	0.454	0.426	–	0.485
CAL-12T	0.632	0.578	0.647	0.6	0.566	0.481	0.413	0.484	0.574	0.418	–	–	–	–	–	0.556	0.792	0.682	0.603	0.603
RERF-LC-KJ	1.01	1.16	0.888	1.1	1.01	1.12	1.11	1.04	1.06	1.12	0.727	0.69	0.753	0.809	0.681	0.887	0.822	0.794	0.904	0.763
NCI-H1650	–	–	–	–	–	0.344	0.351	0.374	0.327	0.347	0.417	0.358	0.408	0.465	0.453	0.796	0.978	0.965	0.914	0.923
BEN	0.637	0.631	0.599	0.51	0.646	0.448	0.484	0.471	0.423	0.502	0.683	0.707	0.681	0.707	0.75	0.932	0.738	0.803	0.942	0.861
EMC-BAC-2	1.21	1.2	1.07	1.19	1.01	0.549	0.543	0.499	0.569	0.549	1.03	0.988	1	0.925	0.993	0.809	0.731	0.744	0.713	0.743
LU99A	0.333	0.379	0.326	0.311	0.337	0.476	0.493	0.41	0.436	0.391	0.963	0.853	0.944	0.867	0.849	0.585	0.612	0.587	0.578	0.539

Cell Line	relative viability ([1]; first compound 0.0025 µM)	relative viability ([1]; first compound 0.007906 µM)	relative viability ([1]; first compound 0.025 µM)	relative viability ([1]; first compound 0.07906 µM)	relative viability ([1]; first compound 0.25 µM)	relative viability ([2]; first compound 0.0025 µM)	relative viability ([2]; first compound 0.007906 µM)	relative viability ([2]; first compound 0.025 µM)	relative viability ([2]; first compound 0.07906 µM)	relative viability ([2]; first compound 0.25 µM)	relative viability ([3]; first compound 0.08 µM)	relative viability ([3]; first compound 0.253 µM)	relative viability ([3]; first compound 0.8 µM)	relative viability ([3]; first compound 2.53 µM)	relative viability ([3]; first compound 8 µM)	relative viability ([4]; first compound 0.08 µM)	relative viability ([4]; first compound 0.253 µM)	relative viability ([4]; first compound 0.8 µM)	relative viability ([4]; first compound 2.53 µM)	relative viability ([4]; first compound 8 µM)
ABC-1	0.777	0.631	0.732	0.878	0.841	0.72	0.445	–	0.638	0.729	0.838	1.12	0.975	0.98	0.95	0.876	1.21	1.3	1.15	1.09
NCI-H2170	0.899	0.925	0.854	0.895	0.906	0.432	0.446	0.431	0.39	0.409	0.428	0.451	0.482	0.507	0.457	1.25	1.2	1.14	1.17	1.22
NCI-H1299	–	–	–	–	–	–	–	–	–	–	–	–	–	–	–	0.97	0.953	0.981	0.923	0.93
EBC-1	–	–	–	–	–	–	–	–	–	–	–	–	–	–	–	0.181	0.187	0.168	0.194	0.161
NCI-H2342	0.414	0.505	0.345	0.373	0.388	0.514	0.562	0.442	0.502	0.593	0.719	0.745	0.757	0.714	0.744	–	–	–	–	–
COR-L23	–	–	–	–	–	0.291	0.266	0.238	0.245	0.318	0.426	0.471	0.421	0.478	0.459	0.634	0.626	0.619	0.673	0.667
COR-L 105	–	–	–	–	–	0.433	0.423	0.395	0.403	0.383	0.559	0.678	0.724	0.677	0.619	0.745	0.942	0.688	0.72	0.921
NCI-H596	1.29	1.25	1.06	0.976	1.01	–	–	–	–	–	1.06	1.04	0.933	0.853	1.02	0.831	0.966	1.08	1.02	0.973
NCI-H2023	–	–	–	–	–	0.305	0.375	0.296	0.402	0.491	0.231	0.22	0.259	0.233	0.265	0.668	0.627	0.637	0.636	0.592
NCI-H1793	0.281	0.339	0.203	0.279	0.24	0.3	0.36	0.324	0.313	0.3	0.519	0.454	0.535	0.586	0.476	–	–	–	–	–
NCI-H520	–	–	–	–	–	0.256	0.225	0.259	0.239	0.204	0.407	0.462	0.538	0.508	0.486	0.785	0.812	0.757	0.775	0.796
A549	–	–	–	–	–	–	–	–	–	–	0.313	0.263	0.312	0.195	0.223	0.819	0.794	0.814	0.669	0.744
NCI-H1563	–	–	–	–	–	–	–	–	–	–	–	–	–	–	–	0.874	0.907	0.861	0.92	0.854
NCI-H1395	0.416	0.4	0.4	0.356	0.389	0.682	0.614	0.595	0.606	0.663	0.695	0.649	0.676	0.754	0.653	–	–	–	–	–
NCI-H2009	–	–	–	–	–	0.222	0.206	0.221	0.319	0.175	0.354	0.408	0.387	0.321	0.372	0.992	1	1.08	0.971	0.995
SW 900	0.604	0.706	0.628	0.58	0.449	0.541	0.583	0.624	0.497	0.651	0.467	0.396	–	0.472	0.438	–	–	–	–	–
IA-LM	–	–	–	–	–	–	–	–	–	–	–	–	–	–	–	0.94	0.874	0.741	0.755	0.704
SK-LU-1	–	–	–	–	–	0.375	0.349	0.294	0.278	0.281	0.636	0.687	0.592	0.65	0.654	0.881	0.797	0.948	0.904	0.881
NCI-H1703	0.113	0.144	0.112	0.113	0.136	–	–	–	–	–	–	–	–	–	–	0.582	0.875	1.09	0.636	0.823
NCI-H1648	0.615	0.437	0.5	0.428	0.613	0.261	0.271	0.297	0.207	0.283	–	0.598	0.502	0.51	0.441	–	–	–	–	–
